Our source for the melting point values is patent US6413947B1, “Anilide derivative, production and use thereof” (Takeda Chemical Industries, Ltd., priority 1997, dated 2002).

On to `Cc1ccc(-c2cccc(/C=C/C(=O)Nc3ccc(CN4CCCC(CO)C4)cc3)c2)cc1` (stereo not drawn) [Compound 66, (E)-N-[4-[3—(hydroxy-methyl)piperidinomethyl]phenyl]-3—(4-methylphenyl)cinnamamide], for which the melting point was 153 to 154 °C. The value for `Cc1ccc(-c2cccc(/C=C/C(=O)Nc3ccc(CN4CCCC(O)C4)cc3)c2)cc1` (stereo not drawn) [Compound 67, (E)-N-[4—(3-hydroxypiperidino-methyl)phenyl]-3—(4-methylphenyl)cinnamamide] was 132 to 134 °C; that for `Cc1ccc(-c2cccc(/C=C/C(=O)Nc3ccc(CN4CCCCC4CO)cc3)c2)cc1` (stereo not drawn) [Compound 68, (E)-N-[4-[2—(hydroxy-methyl)piperidinomethyl]phenyl]-3—(4-methylphenyl)cinnamamide] was 137 to 139 °C; that for `Cc1ccc(-c2cccc(/C=C/C(=O)Nc3ccc(CN4CCCCC4CCO)cc3)c2)cc1` (stereo not drawn) [Compound 69, (E)-N-[4-[2—(2-hydroxyethyl)piperidinomethyl]phenyl]-3—(4-methylphenyl)cinnamamide] was 142 to 143 °C. For `Cc1ccc(-c2cccc(/C=C/C(=O)Nc3ccc(CN4CCCCC4)cc3)c2)cc1` [Compound 70, (E)-N-[4—(piperidinomethyl)phenyl]-3—(4-methylphenyl)cinnamamide] the value was 154 to 156 °C; for `Cc1ccc(-c2cccc(/C=C/C(=O)Nc3ccc(C(O)c4ccccn4)cc3)c2)cc1` (stereo not drawn) [Compound 79, (E)-N-[4-[hydroxy(2-pyridyl)methyl]phenyl]-3—(4-methylphenyl)cinnamamide], 162 to 165 °C. For `Cc1ccc(-c2cccc(/C=C/C(=O)Nc3ccc(C(O)c4cccc[n+]4[O-])cc3)c2)cc1` (stereo not drawn) [Compound 80, (E)-N-[4-[hydroxy(1-oxido-2-pyridyl)methyl]-phenyl]-3—(4-methylphenyl)cinnamamide] the value was 165 to 167 °C. Turning to `O=C(C=Cc1cccc(-c2ccccc2)c1)Nc1ccc(CN2CCCCC2)cc1` [Compound 81, 1—(4—(3-phenylcinnamoylamino)-benzyl)piperidine], the melting point was in the range of 159 to 160 °C.

Turning to `Cc1ccc(-c2ccc3c(c2)C=C(C(=O)Nc2ccc(CSc4ccccc4)cc2)CCO3)cc1` [Compound 82, 7—(4-methylphenyl)-N-(4—(phenyl-thiomethyl)phenyl)-2,3-dihydro-1-benzoxepine-4-carboxamide], the melting point lay within 176 to 177 °C. `O=C(C=Cc1cccc(-c2ccc(F)cc2)c1)Nc1ccc(CN2CCCCC2)cc1` [Compound 83, 1—(4—(3—(4-fluoro-phenyl)cinnamoylamino)benzyl)piperidine]: the melting point was in the range of 166 to 167 °C. The value for `Cc1ccc(-c2ccc3c(c2)C=C(C(=O)Nc2ccc(CSCc4ccccc4)cc2)CCO3)cc1` [Compound 86, N-(4—(benzylthiomethyl)phenyl)-7—(4-methylphenyl)-2,3-dihydro-1-benzoxepine-4-carboxamide] was 145 to 146 °C.

On to `CN1CCCN(C)P1(=O)Cc1ccc(NC(=O)C2=Cc3cc(-c4ccccc4)ccc3CC2)cc1` [Compound 89, 2—(4—(3,4-dihydro-7-phenyl-naphthalene-2-carbonyl-amino)benzyl)-1,3-dimethyl-1,3,2-diazaphosphorinane-2-oxide], for which the melting point lay in the range of 249 to 250 °C. For `Cc1ccc(-c2ccc3c(c2)C=C(C(=O)Nc2ccc(CN4CCCCC4)cc2)CCS3)cc1` [Compound 93, 7—(4-methylphenyl)-N-(4-piperidinomethylphenyl)-2,3-dihydro-1-benzothiepine-4-carboxamide] the value was 203 to 204 °C; for `Cc1ccc(-c2ccc3c(c2)C=C(C(=O)Nc2ccc(CCN4CCCCC4)cc2)CCO3)cc1` [Compound 99, N-(4—(2-piperidinoethyl)phenyl)-7—(4-methylphenyl)-2,3-dihydro-1-benzoxepine-4-carboxamide], 201 to 202 °C. For `Cc1ccc(-c2ccc3c(c2)C=C(C(=O)Nc2ccc(CN(C)C4CCOCC4)cc2)CC(c2ccccc2)O3)cc1` (stereo not drawn) [Compound 101, 7—(4-methylphenyl)-2-phenyl-N-(4—((N-tetrahydropyran-4-yl-N-methylamino)methyl)phenyl)-2,3-dihydro-1-benzoxepine-4-carboxamide] the value was 178 to 179 °C. The value for `Cc1ccc(-c2ccc3c(c2)C=C(C(=O)Nc2ccc(CN4CCCCC4)cc2)CC(c2ccccc2)O3)cc1` (stereo not drawn) [Compound 102, 7—(4-methylphenyl)-2-phenyl-N-(4—(piperidinomethyl)phenyl)-2,3-dihydro-1-benzoxepine-4-carboxamide] was 210 to 211 °C; that for `Cc1ccc(-c2ccc3c(c2)C=C(C(=O)Nc2ccc(CN(C)C4CCOCC4)cc2)CC(C)O3)cc1` (stereo not drawn) [Compound 104, 7—(4-methylphenyl)-2-methyl-N-(4—((N-tetrahydropyran-4-yl-N-methylamino)methyl)phenyl)-2,3-dihydro-1-benzoxepine-4-carboxamide] was 170 to 171 °C.

`Cc1ccc(-c2ccc3c(c2)C=C(C(=O)Nc2ccc(CN4CCCCC4)cc2)CC(C)O3)cc1` (stereo not drawn) [Compound 105, 7—(4-methylphenyl)-2-methyl-N-(4—(piperidinomethyl)phenyl)-2,3-dihydro-1-benzoxepine-4-carboxamide] showed a melting point of 175 to 176 °C. For `Cc1ccc(-c2ccc3c(c2)C=C(C(=O)Nc2ccc(CS(=O)(=O)C4CCCCC4)cc2)CCO3)cc1` [Compound 107, N-(4—(cyclohexylsulfonylmethyl)phenyl)-7—(4-methylphenyl)-2,3-dihydro-1-benzoxepine-4-carboxamide] the value was 250 to 251 °C. With `Cc1ccc(-c2ccc3c(c2)C=C(C(=O)Nc2ccc(C[S+]([O-])c4ccccc4)cc2)CCO3)cc1` (stereo not drawn) [Compound 108, 7—(4-methylphenyl)-N-(4—(phenylsulfinylmethyl)phenyl)-2,3-dihydro-1-benzoxepine-4-carboxamide], the melting point was 127 to 128 °C.

As to `Cc1ccc(-c2ccc3c(c2)C=C(C(=O)Nc2ccc(C[S+]([O-])Cc4ccccc4)cc2)CCO3)cc1` (stereo not drawn) [Compound 109, N-(4—(benzylsulfinylmethyl)phenyl)-7—(4-methylphenyl)-2,3-dihydro-1-benzoxepine-4-carboxamide], the melting point lay in the range of 208 to 209 °C. The value for `Cc1ccc(-c2ccc3c(c2)C=C(C(=O)Nc2ccc(CNC4CCCCC4)cc2)CCO3)cc1` [Compound 114, N-(4—((cyclohexylamino)methyl)phenyl)-7—(4-methylphenyl)-2,3-dihydro-1-benzoxepine-4-carboxamide] was 183 to 184 °C; that for `Cc1ccc(-c2ccc3c(c2)C=C(C(=O)Nc2ccc(CNc4ccccc4)cc2)CCO3)cc1` [Compound 115, N-(4—((phenylamino)methyl)phenyl)-7—(4-methylphenyl)-2,3-dihydro-1-benzoxepine-4-carboxamide] was 157 to 158 °C. The value for `Cc1ccc(-c2ccc3c(c2)C=C(C(=O)Nc2ccc(CNCc4ccccc4)cc2)CCO3)cc1` [Compound 117, N-(4—((benzylamino)methyl)phenyl)-7—(4-methylphenyl)-2,3-dihydro-1-benzoxepine-4-carboxamide] was 147 to 148 °C; that for `Cc1ccc(-c2ccc3c(c2)C=C(C(=O)Nc2ccc(CN(C(C)C)C(C)C)cc2)CCO3)cc1` [Compound 119, N-(4—((diisopropylamino)methyl)phenyl)-7—(4-methylphenyl)-2,3-dihydro-1-benzoxepine-4-carboxamide] was 152 to 153 °C. The value for `Cc1ccc(-c2ccc3c(c2)C=C(C(=O)Nc2ccc(CNCC4CCCCC4)cc2)CCO3)cc1` [Compound 122, N-(4—((cyclohexylmethyl)aminomethyl)phenyl)-7—(4-methylphenyl)-2,3-dihydro-1-benzoxepine-4-carboxamide] was 154 to 155 °C; that for `CN1CCN(c2ccc(-c3ccc4c(c3)C=C(C(=O)Nc3ccc(CN(C)C5CCOCC5)cc3)CCO4)cc2)CC1` [Compound 124, 7—(4—(4-methylpiperazin-1-yl)phenyl)-N-(4—((N-tetrahydropyran-4-yl-N-methylamino)methyl)phenyl)-2,3-dihydro-1-benzoxepine-4-carboxamide] was 220 to 221 °C; that for `Cc1ccc(-c2ccc3c(c2)C=C(C(=O)Nc2ccc(C(O)CN4CCCCC4)cc2)CCO3)cc1` (stereo not drawn) [Compound 145, N-(4—(1-hydroxy-2-piperidinoethyl)phenyl)-7—(4-methylphenyl)-2,3-dihydro-1-benzoxepine-4-carboxamide] was 212 to 213 °C. `CN(Cc1ccc(NC(=O)C2=Cc3cc(-c4cccnc4)ccc3OCC2)cc1)C1CCOCC1` [Compound 146, 7—(3-pyridyl)-N-(4—((N-tetrahydropyran-4-yl-N-methylamino)-methyl)phenyl)-2,3-dihydro-1-benzoxepine-4-carboxamide] had a melting point of 158 to 159 °C. As for `CN(C)c1ccc(-c2ccc3c(c2)C=C(C(=O)Nc2ccc(CN(C)C4CCOCC4)cc2)CCO3)cc1` [Compound 149, 7—(4-dimethylaminophenyl)-N-(4—((N-tetrahydropyran-4-yl-N-methylamino)methyl)phenyl)-2,3-dihydro-1-benzoxepine-4-carboxamide], the melting point is 208 to 209 °C (dec.). `CN(Cc1ccc(NC(=O)C2=Cc3cc(-c4ccc(N5CCCC5)cc4)ccc3OCC2)cc1)C1CCOCC1` [Compound 150, 7—(4—(pyrrolidin-1-yl)phenyl)-N-(4—((N-tetrahydropyran-4-yl-N-methylamino)-methyl)phenyl)-2,3-dihydro-1-benzoxepine-4-carboxamide]: the melting point lay within 210 to 211 °C. Consider `CN(Cc1ccc(NC(=O)C2=Cc3cc(-c4ccc(-n5ccnc5)cc4)ccc3OCC2)cc1)C1CCOCC1` [Compound 153, 7—(4—(1-imidazolyl)phenyl)-N-(4—((N-tetra-hydropyran-4-yl-N-methylamino)methyl)phenyl)-2,3-dihydro-1-benzoxepine-4-carboxamide], for which the melting point lay within 194 to 195 °C. For `CN(C)c1ccc(-c2ccc3c(c2)C=C(C(=O)Nc2ccc(CP4(=O)CCCCC4)cc2)CCO3)cc1` [Compound 154, 7—(4-dimethylaminophenyl)-N-(4—((1-oxophosphorinan-1-yl)methyl)phenyl)-2,3-dihydro-1-benzoxepine-4-carboxamide] the value was 293 to 294 °C (dec.).
